From patent US4824996A, “Phospholipase A2 inhibitors” (American Home Products Corporation, priority 1986, dated 1989)
Like-named read-outs stand apart in the source and are kept apart here.

Key:
[1] = test system: synthesis of LTC4 by murine peritoneal macrophages; test: inhibition of LTC4 synthesis by murine peritoneal macrophages; assay type: cell-based, CD-1 mice; conditions: compounds at 10 μm (so in the source)
Description: (§1) The ability of the compounds of the invention to inhibit both leukotriene and prostaglandin synthesis is examined in an assay which measures the ability of the compounds of the invention to inhibit the synthesis of arachidonic acid, PGE2 and LTC4 by murine peritoneal macrophages.
(§2) The assay is carried out as follows:
(§3) Macrophages are removed from the peritoneal cavity of 55-57 day old CD-1 mice (killed by CO2 asphyxiation) by peritoneal lavage and centrifuged at 400×g for ten minutes. The cells are resuspended in Medium 199 and 4×10^6 cells are allowed to adhere on 35×10 mm Petri dishes for 1.5 hours at 37° C. in an atmosphere of 95% air and 5% CO2. The cell monolayers are washed and incubated overnight in Medium 199 supplemented with 10% heat inactivated bovin serum containing 1 μCi[^14 C]-arachidonic acid, or in the absence of ^14 C-arachidonic acid when the supernatant is to be assayed by radioimmunoassay (RIA). The labeled cells are then washed and incubated at 37° C. for 2 hours in Medium 199 with the prostaglandin stimuli, zymosan, or 12-o-tetradecanoyl-phorbol-13-acetate (TPA) and in the presence or absence of test compounds. Following incubation, the supernatant is removed and subjected to radioimmunoassay in order to determine the percent inhibition of arachidonic acid, prostaglandin E2 and leukotriene C4 by the test compounds.

[2] = test system: lipoxygenase and/or cyclooxygenase pathways of arachidonic acid; test: in vivo arachidonic acid (AA)-induced murine ear edema test; parameters: species or system Swiss Webster female mice; conditions: 1 mg/ear, 30 minutes prior to AA, ears measured after 1 hour
From the text: (§4) The ability of the compounds of the invention to inhibit the lipoxygenase and/or cyclooxygenase pathways of arachidonic acid is examined in the in vivo arachidonic acid (AA)-/12-O-tetradecanoylphorbol acetate (TPA)-induced murine ear edema test.
According to this test, Swiss Webster female mice (Buckshire), approximately 8 weeks old, are placed into plastic boxes in groups of six. Eight groups of mice receive AA topically on the right ear, and another 8 groups receive TPA topically on the right ear. AA and TPA are dissolved in acetone at concentrations of 100 mg/ml ad 100 μg/ml respectively. The phlogistics are applied to the right ear by the means of an automatic pipet. Volumes of 10 μl are applied to the inner and outer surfaces of the ear. Each mouse receives either 2 mg/ear AA or […] TPA. The left ear (control) receives acetone delivered in the same manner. […]
(§5) Measurements are taken with Oditest calipers, 0-10 mm with 0.01 graduations. The right and left ears are measured after 1 hour AA-induced inflammation and 4 hours after TPA-induced inflammation.
(§6) The difference between right and left ear thickness is calculated and the significance is determined by a one way analysis of variance with Dunnett's comparisons to control (P=0.05). Drug effects are expressed as a percent change from control values: [formula]

[3] = test system: synthesis of PGE2 by murine peritoneal macrophages; test: inhibition of PGE2 synthesis by murine peritoneal macrophages; assay type: cell-based, CD-1 mice; conditions: compounds at 10 μm (so in the source)
Description: as §1, §2, §3

human platelet PLA2 = biological target: T1, human platelet PLA2 (Homo sapiens, UniProt P14555); test: in vitro assay of inhibition of human platelet PLA2 (hydrolysis of [1-14C]oleic acid labelled E. coli membrane phospholipids); assay type: biochemical
T1 construct: The PLA2 enriched supernatant fluid is removed; from tissue; host or cells: expired human platelets from the blood bank (acid extract, 10,000 g supernatant)
T1 sequence (P14555 21-144): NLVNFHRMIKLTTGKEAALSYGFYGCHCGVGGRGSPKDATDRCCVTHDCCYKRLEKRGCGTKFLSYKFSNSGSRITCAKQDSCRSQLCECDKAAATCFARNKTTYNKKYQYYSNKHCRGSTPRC
Description: The ability of the compounds to inhibit the activity of PLA2 enzyme is measured in the following in vitro assay.
as §2
E. coli, cultured to exponential growth, are sedimented for 15 minutes at 10,000 g and resuspended in sterile isotonic saline (1-3 ml). 10-25 μCi [1-^14 C] oleic acid is added to a sterile flask, evaporated by N2 and resolubilized with 0.3 ml 20% fatty acid-free BSA. 75-100 ml of nutrient broth and 1 ml E. coli are then added to each flask and incubated for 2-3 hours at 37° C. [1-^14 C] oleic acid labelled E. coli are then sedimented, suspended in saline and added to fresh nutrient broth and incubated for 1.5 hours at 37° C. to complete [1-^14 C] oleic acid incorporation into the phospholipids. After overnight refrigeration of cultures, E. coli are again sedimented, suspended in saline and autoclaved for 15 minutes at 120° C. E. coli cultures are washed twice with saline (first wash contains 1% BSA) and resuspended in saline. Non-labelled E. coli cultures are also prepared in the same manner. Cell number is determined by measuring the optical density at 550 nm ([…]=1 O.D.). The amount of radioactivity associated with cells is determined by counting a defined volume of cell suspension. The specific activity is subsequently adjusted by adding non-labelled E. coli to yield 2-4×10 cpm per 1×10^10 E. coli. [1-^14 C] arachidonic acid-labelled E. coli are similarly prepared.
Platelet PLA2 Preparation
Expired human platelets from the blood bank are centrifuged for 15 minutes at 200 g to obtain a platelet rich plasma fraction and to remove the red blood cells. Platelets are sedimented for 15 minutes at 2500 g and the plasma is removed before adding cold 0.18N […] (4 ml/unit). Platelets are homogenized, incubated for 1 hour at 4° C., homogenized again and centrifuged for 15 minutes at 10,000 g. The PLA2 enriched supernatant fluid is removed and the amount of protein is determined by the Lowry method. The preparation is divided into various portions and stored at -20° C.
The assay measures the hydrolysis of E. coli membrane phospholipids and the release of free [1-^14 C] oleic acid from the C-2 position of phospholipids by human platelet PLA2. To ice cold 15×100 mm test tubes, the following additions are made: 2,5×10 E. coli (equivalent to 4 nmol phospholipid), 5 mM Ca^++, 100 mM Tris buffer (pH=7.4), 100 μg platelet extract (or an amount to produce 20-30% hydrolysis), drug or vehicle. The final volume is adjusted to 500 μl with water. Mixtures are vortexed and incubated for 30 minutes in a shaking water bath. It should be noted that preliminary experiments are always performed with each new batch of platelets to establish linear hydrolysis of phospholipids with regard to protein concentration and time. The enzyme reaction is stopped by the addition of 3 volumes of CHCl3 to each tube which is vortexed and then centrifuged for 5 minutes at 500 g. The lower CHCl3 /CH3 OH phase is removed and evaporated under N. The dried residue is redissolved in 50 μl CHCl3 :CH3 OH (9:1 v/v), spotted on aluminum-backed chromatographic plates and developed in a solvent system consisting of petroleum ether:diethyl ether:acetic acid (80:20:1). Free fatty acid ([1-^14 C]oleic acid) and [1-^14 C]oleic acid labeled phospholipids are visualized with exposure to iodine vapors. Radioactive areas that cochromatographed with authentic oleic acid and phospholipid standards are cut out and placed in a scintillation vial. One ml CH3 OH and 10 ml Hydrofluor are added to each cut strip and radioactivity is determined by liquid scintillation counting.
The percent hydrolysis is calculated by the following equation: [formula]

[4] = test system: synthesis of arachidonic acid by murine peritoneal macrophages; test: inhibition of arachidonic acid (AA) synthesis by murine peritoneal macrophages; assay type: cell-based, CD-1 mice; conditions: compounds at 10 μm (so in the source)
Description: as §1, §2, §3

[5] = test system: lipoxygenase and/or cyclooxygenase pathways of arachidonic acid; test: in vivo 12-O-tetradecanoylphorbol acetate (TPA)-induced murine ear edema test; parameters: species or system Swiss Webster female mice; conditions: 30 minutes after TPA, ears measured after 4 hours; for % Change from Control, TOPICAL TPA: 1 mg/ear; for % Change from Control, ORAL TPA: 100 mg/kg
From the text: as §4
According to this test, Swiss Webster female mice (Buckshire), approximately 8 weeks old, are placed into plastic boxes in groups of six. Eight groups of mice receive AA topically on the right ear, and another 8 groups receive TPA topically on the right ear. AA and TPA are dissolved in acetone at concentrations of 100 mg/ml ad 100 μg/ml respectively. The phlogistics are applied to the right ear by the means of an automatic pipet. Volumes of 10 μl are applied to the inner and outer surfaces of the ear. Each mouse receives either 2 mg/ear AA or 4 μg/ear TPA. The left ear (control) receives acetone delivered in the same manner. Oral and topical dosing regimens are as follows: (1) drugs are given 30 minutes prior to AA treatment, and (2) drugs are given 30 minutes after treatment with TPA.
as §5, §6

[6] = compounds of the invention, Table 1, read-out: IC50 (inhibition of PLA2)

CCCCCCCCCCCCCCCCNC(=O)OCCCCCCN(C)C [Example 2, Hexadecylcarbamic acid 6-(dimethylamino)hexyl ester]
Mean % Inhibition ± S.E., LTC4 [1]: 81.00 ± 1.79%
% Change from Control, TOPICAL AA [2]: -29%
Mean % Inhibition ± S.E., PGE2 [3]: 81.18 ± 2.06%
inhibition at 100 µM (human platelet PLA2): 100%
IC50 (human platelet PLA2; [6]): 30 µM
Mean % Inhibition ± S.E., AA [4]: 36.92 ± 6.29%
% Change from Control, TOPICAL TPA [5]: -42%

CCCCCCCCCCCCCCCCNC(=O)OCCCN(C)C [Example 3, Hexadecylcarbamic acid 3-(dimethylamino)propyl ester]
inhibition at 100 µM (human platelet PLA2): 100%

CCCCCCCCCCCCCC(=O)N1CC(C)NC(C)C1 (stereo not shown) [Example 9, 3,5-Dimethyl-1-(1-oxotetradecyl)piperazine]
Mean % Inhibition ± S.E., LTC4 [1]: 82.15 ± 2.48%
Mean % Inhibition ± S.E., PGE2 [3]: 73.50 ± 8.20%
inhibition at 100 µM (human platelet PLA2): 100%
IC50 (human platelet PLA2; [6]): 8.5 µM
Mean % Inhibition ± S.E., AA [4]: 50.42 ± 2.50%
% Change from Control, ORAL TPA [5]: -25%
% Change from Control, TOPICAL TPA [5]: -55%

CCCCCCCCCCCCCCC(=O)NCCCN(C)C [Example 4, N-[3-(dimethylamino)propyl]pentadecanamide]
Mean % Inhibition ± S.E., LTC4 [1]: 91.95 ± 2.57%
Mean % Inhibition ± S.E., PGE2 [3]: 48.62 ± 9.32%
inhibition at 100 µM (human platelet PLA2): 100%
IC50 (human platelet PLA2; [6]): 6.8 µM
Mean % Inhibition ± S.E., AA [4]: 34.12 ± 5.58%
% Change from Control, ORAL TPA [5]: -60%
% Change from Control, TOPICAL TPA [5]: -48%

CCCCCCCCCCCCCCCCS(=O)(=O)NCCCCCCCN(CC)CC [Example 7]
inhibition at 100 µM (human platelet PLA2): 94.4%

CCCCCCNC(=O)OCCCCCCN(C)C [Example 5, Hexylcarbamic acid 6-(dimethylamino)hexyl ester]
inhibition at 100 µM (human platelet PLA2): 11%

CCCCCCCCCCCCCC(=O)NN(C)C [Example 8, Tetradecanoic acid 2,2-dimethylhydrazide]
inhibition at 100 µM (human platelet PLA2): 55.9%

Gold Sodium Thiomalate [reference compound]
IC50 (human platelet PLA2; standard drugs, read-out: Inhibition of PLA2 Activity IC50): 43 µM

CCCCCCCCCCCCCCCCNC(=O)NCCCN(C)C [Example 6, N-[3-(dimethylamino)propyl]-N'-hexadecylurea]
inhibition at 100 µM (human platelet PLA2): 100%

CCCCCCCCCCCCNC(=O)OCCCCCCN(C)C [Example 1, Dodecylcarbamic acid 6-(dimethylamino)hexyl ester]
inhibition at 100 µM (human platelet PLA2): 100%
